Results published in patent US10577373B2, “TYK2 inhibitors and uses thereof” (Nimbus Lakshmi, Inc., priority 2017, dated 2020).
Like-named read-outs stand apart in the source and are kept apart here.

How the values were obtained:
[1] = tested on: GM-CSF induced STAT5 phosphorylation mediated by the JAK2/JAK2 homdimeric complex; experiment: GM-CSF Induced pSTAT5 in Human PBMC; details: GM-CSF 5 ng/mL for 20 minutes, pSTAT5
Excerpt: Human PBMC are isolated from buffy coat and are stored frozen for assays as needed.

[2] = tested on: IL-12 induced STAT4 phophorylation mediated by Tyk2/JAK2 (heterodimeric complex); experiment: IL-12 Induced pSTAT4 in Human PBMC; format: cell-based; details: 1.7 ng/mL IL-12
Excerpt: The IL-12 Induced pSTAT4 assay evaluates the inhibition of IL-12 induced STAT4 phophorylation mediated by Tyk2/JAK2 (heterodimeric complex).

[3] = Homo sapiens, PBMC, 20 min, read-out: PBMC_GMCSF_pSTAT5 IC50, human PBMC
[4] = read-out: PBMC_GMCSF_pSTAT5 IC50, human PBMC

Row | IC50 [1, 3] | IC50 [2] | IC50 [1, 4] | SMILES
1 | > 2500 nM | < 100 nM | – | CNc1cc(Nc2cccn(-c3ncc(C)s3)c2=O)nc2c(C(=O)NC3CC3)cnn12 [I-261, N-cyclopropyl-7-(methylamino)-5-((1-(5-methylthiazol-2-yl)-2-oxo-1,2-dihydropyridin-3-yl)amino)pyrazolo[1,5-a]pyrimidine-3-carboxamide]
2 | – | 100 to 500 nM | > 50000 nM | CNc1cc(Nc2cccc3ocnc23)nc2c(C(=O)N[C@@H]3CC[C@H]3O)cnn12 [I-857]
3 | > 50000 nM | < 100 nM | – | CNC(=O)c1occc1Nc1cc(NC)n2ncc(C(=O)N[C@@H]3C[C@@H]3F)c2n1 [I-888, N-((1R,2S)-2-fluorocyclopropyl)-7-(methylamino)-5-((2-(methylcarbamoyl)furan-3-yl)amino)pyrazolo[1,5-a]pyrimidine-3-carboxamide]
4 | > 50000 nM | < 100 nM | – | CNc1cc(Nc2cccnc2OC2CC2)nc2c(C(=O)NCC(C)(C)CO)cnn12 [I-350]
5 | > 2500 nM | < 100 nM | – | CNc1cc(Nc2cccn(-c3cnc(C(=O)N(C)C)cn3)c2=O)nc2c(C(=O)NC3CCC3)cnn12 [I-122]
6 | > 12500 nM | 100 to 500 nM | – | CNc1cc(Nc2cccn(-c3cnn(CC4CCOCC4)c3)c2=O)nc2c(C(=O)NC3CC3)cnn12 [I-406]
7 | > 50000 nM | < 100 nM | – | CNc1cc(Nc2cccn(C3CCC4(CC3)OCCO4)c2=O)nc2c(C(=O)N[C@@H]3C[C@@H]3F)cnn12 [I-415, N-((1R,2S)-2-fluorocyclopropyl)-7-(methylamino)-5-((2-oxo-1-(1,4-dioxaspiro 14.51 decan-8-yl)-1,2-dihydropyridin-3-yl)amino)pyrazolo[1,5-a]pyrimidine-3-carboxamide]
8 | > 50000 nM | < 100 nM | – | CNc1cc(Nc2cccn(-c3ncc(OC)cc3F)c2=O)nc2c(C(=O)N[C@H]3C[C@H]3F)cnn12 [I-673]
9 | – | < 100 nM | > 50000 nM | CNc1cc(Nc2cccnc2OC)nc2c(C(=O)N[C@@H]3CC[C@H]3O)cnn12 (stereo in doubt) [I-363, N-((1R,2R)-2-hydroxycyclobutyl)-5-((2-methoxypyridin-3-yl)amino)-7-(methylamino)pyrazolo[1,5-a]pyrimidine-3-carboxamide]
10 | > 12500 nM | < 100 nM | – | CNc1cc(-c2c[nH]c3c(C4CCOCC4)cc(Cl)cc23)nc2c(C(N)=O)cnn12 [I-190]
11 | > 50000 nM | < 100 nM | – | CNc1cc(Nc2cc(Cl)cn([C@H]3CCCN(C)C3)c2=O)nc2c(C(=O)N[C@@H]3C[C@@H]3F)cnn12 [I-854]
12 | > 12500 nM | < 100 nM | – | CNc1cc(Nc2cccn(-c3cnc(C(=O)N(C)C)cn3)c2=O)nc2c(C(=O)NC3CC3)cnn12 [I-127, N-cyclopropyl-5-((1-(5-(dimethylcarbamoyl)pyrazin-2-yl)-2-oxo-1,2-dihydropyridin-3-yl)amino)-7-(methylamino)pyrazolo[1,5-a]pyrimidine-3-carboxamide]
13 | > 2500 nM | < 100 nM | – | CNc1cc(Nc2cccn([C@H]3CC[C@@H](N4CCOCC4)CC3)c2=O)nc2c(C(=O)NC3CCC3)cnn12 [I-182]
14 | > 2500 nM | < 100 nM | – | CNc1cc(Nc2cccn(C3CCOCC3)c2=O)nc2c(C(=O)NC3CC3)cnn12 [I-329]
15 | > 50000 nM | < 100 nM | – | CNc1cc(Nc2cccnc2OC)nc2c(C(=O)N[C@H]3C[C@H]3F)cnn12 [I-110]
16 | > 12500 nM | < 100 nM | – | CNc1cc(Nc2cccc(N3CCOC3=O)n2)nc2c(C(=O)NC3CCC3)cnn12 [I-105]
17 | > 12500 nM | < 100 nM | – | CNc1cc(Nc2cccnc2OC)nc2c(C(=O)NC3CCC3)cnn12 [I-4]
18 | > 12500 nM | < 100 nM | – | CNc1cc(Nc2cccn(-c3ocnc3C)c2=O)nc2c(C(=O)N[C@@H]3C[C@@H]3F)cnn12 [I-790]
19 | > 50000 nM | < 100 nM | – | CNc1cc(Nc2cccnc2OC)nc2c(C(=O)N[C@H]3CC[C@H]3O)cnn12 [I-429]
20 | > 50000 nM | < 100 nM | – | CNc1cc(Nc2cccc([C@@H]3CCCOC3)n2)nc2c(C(=O)N[C@H]3C[C@H]3F)cnn12 [I-562]
21 | > 50000 nM | < 100 nM | – | CNc1cc(Nc2cccc(C)c2Cl)nc2c(C(N)=O)cnn12 [I-14]
22 | > 12500 nM | < 100 nM | – | CNc1cc(Nc2cc(Cl)cn(-c3ccc(C4CC4)nn3)c2=O)nc2c(C(=O)NC3CC3)cnn12 [I-333]
23 | > 12500 nM | < 100 nM | – | CNc1cc(Nc2cccn([C@@H]3CCCOC3)c2=O)nc2c(C(=O)N[C@@H]3C[C@@H]3F)cnn12 [I-474]
24 | > 2500 nM | < 100 nM | – | CNc1cc(Nc2cc(C)cn(-c3cnn(C)c3)c2=O)nc2c(C(=O)N[C@H]3C[C@H]3F)cnn12 [I-235]
25 | > 50000 nM | < 100 nM | – | CNc1cc(Nc2cccn([C@H]3CC[C@@H]3O)c2=O)nc2c(C(=O)N[C@@H]3C[C@@H]3F)cnn12 [I-916]

Row | IC50 [1, 3] | IC50 [2] | IC50 [1, 4] | SMILES
26 | > 50000 nM | < 100 nM | – | CNc1cc(Nc2cccn(-c3cnc(C(=O)N(C)C)cn3)c2=O)nc2c(C(=O)N[C@H]3C[C@H]3F)cnn12 [I-126]
27 | > 50000 nM | < 100 nM | – | CNc1cc(Nc2cccn([C@H]3CC[C@H](OC)CC3)c2=O)nc2c(C(=O)NC3CCC3)cnn12 [I-345]
28 | – | < 100 nM | > 50000 nM | CNc1cc(Nc2cccn(-c3ccccn3)c2=O)nc2c(C(=O)N[C@@H]3CC[C@H]3OC)cnn12 [I-908, N-((1R,2R)-2-methoxycyclobutyl)-7-(methylamino)-5-((2-oxo-2H-[1,2′-bipyridin]-3-yl)amino)pyrazolo[1,5-a]pyrimidine-3-carboxamide]
29 | > 12500 nM | < 100 nM | – | CNc1cc(Nc2cccn(-c3cc(C)on3)c2=O)nc2c(C(=O)NC3CCC3)cnn12 [I-160]
30 | > 50000 nM | < 100 nM | – | CNc1cc(Nc2cccn(-c3cncc(C)c3)c2=O)nc2c(C(=O)NC3CCC3)cnn12 [I-303]
31 | > 12500 nM | < 100 nM | – | CNc1cc(Nc2cccn(C3CCN(CC(F)F)CC3)c2=O)nc2c(C(=O)NC3CCC3)cnn12 [I-192]
32 | > 12500 nM | < 100 nM | – | CNc1cc(Nc2cc(F)cn(-c3ccccn3)c2=O)nc2c(C(=O)NC3CCC3)cnn12 [I-193]
33 | > 50000 nM | < 100 nM | – | CNc1cc(Nc2cccc(N3CCC34COC4)n2)nc2c(C(=O)N[C@H]3C[C@H]3F)cnn12 [I-709]
34 | > 12500 nM | < 100 nM | – | CNc1cc(Nc2cc(Cl)cn(-c3cnn(C)c3)c2=O)nc2c(C(=O)N[C@H]3C[C@H]3F)cnn12 [I-312]
35 | > 50000 nM | < 100 nM | – | CNc1cc(Nc2cccn(-c3cn(C)nc3F)c2=O)nc2c(C(=O)N[C@H]3C[C@H]3F)cnn12 [I-607]
36 | > 50000 nM | 100 to 500 nM | – | CNc1cc(Nc2cccc(N3CCO[C@]4(CCOC4)C3)n2)nc2c(C(=O)NC3CC3)cnn12 [I-827]
37 | > 50000 nM | < 100 nM | – | CNc1cc(Nc2cccn(-c3ccc(F)cn3)c2=O)nc2c(C(=O)NC3CCC3)cnn12 [I-238]
38 | > 50000 nM | < 100 nM | – | [2H]C([2H])([2H])Nc1cc(Nc2cccnc2OC2CC2)nc2c(C(=O)N[C@@H]3C[C@@H]3F)cnn12 (stereo in doubt) [I-375, 5-((2-cyclopropoxypyridin-3-yl)amino)-N-((1R,2S)-2-fluorocyclopropyl)-7-((methyl-d3)amino)pyrazolo[1,5-a]pyrimidine-3-carboxamide]
39 | > 50000 nM | 100 to 500 nM | – | CNc1cc(Nc2cccc3ocnc23)nc2c(C(=O)N[C@@H]3CC[C@H]3O)cnn12 (racemic) [I-756, 5-(benzo[d]oxazol-4-ylamino)-N-(2-hydroxycyclobutyl)-7-(methylamino) pyrazolo[1,5-a]pyrimidine-3-carboxamide]
40 | > 2500 nM | < 100 nM | – | CNc1cc(Nc2cccn(-c3nccs3)c2=O)nc2c(C(=O)N[C@H]3C[C@H]3F)cnn12 [I-243]
41 | > 50000 nM | < 100 nM | – | CNc1cc(Nc2cccnc2OC2CCC2)nc2c(C(=O)N[C@H]3C[C@H]3F)cnn12 [I-170]
42 | > 2500 nM | < 100 nM | – | CNc1cc(Nc2cccn(-c3ncco3)c2=O)nc2c(C(=O)NC3CC3)cnn12 [I-715]
43 | > 2500 nM | < 100 nM | – | CNc1cc(Nc2cccn(-c3nc(C)c(C)s3)c2=O)nc2c(C(=O)N[C@H]3C[C@H]3F)cnn12 [I-292]
44 | > 300 nM | 100 to 500 nM | – | CNc1cc(Nc2cc(C)cn(-c3cnn(C)c3)c2=O)nc2c(C(N)=O)cnn12 [I-31]
45 | > 50000 nM | < 100 nM | – | CNc1cc(Nc2cccn(C3CCCCC3)c2=O)nc2c(C(=O)N[C@@H]3CC[C@@H]3O)cnn12 [I-1000]
46 | – | < 100 nM | > 50000 nM | CNc1cc(Nc2cccn(C3CCCCC3)c2=O)nc2c(C(=O)N[C@@H]3CC[C@H]3O)cnn12 [I-1002]
47 | > 50000 nM | < 100 nM | – | CNc1cc(Nc2cccn(-c3nc(C)co3)c2=O)nc2c(C(=O)NC3CCC3)cnn12 [I-386]
48 | > 50000 nM | < 100 nM | – | CNc1cc(-c2cn(C(C)C)c3ncccc23)nc2c(C(=O)N[C@@H]3C[C@@H]3F)cnn12 (stereo in doubt) [I-225, N-((1R,2S)-2-fluorocyclopropyl)-5-(1-isopropyl-1H-pyrrolo[2,3-b]pyridin-3-yl)-7-(methylamino)pyrazolo[1,5-a]pyrimidine-3-carboxamide]
49 | > 12500 nM | < 100 nM | – | CNc1cc(Nc2cccc(N3CCCC3=O)n2)nc2c(C(=O)NC3CC3)cnn12 [I-7]
50 | > 12500 nM | < 100 nM | – | CNc1cc(Nc2cccn(-c3ccn(C4CC4)n3)c2=O)nc2c(C(=O)N[C@@H]3C[C@@H]3F)cnn12 (stereo in doubt) [I-106, 5-((1-(1-cyclopropyl-1H-pyrazol-3-yl)-2-oxo-1,2-dihydropyridin-3-yl)amino)-N-((1R,2S)-2-fluorocyclopropyl)-7-(methylamino)pyrazolo[1,5-a]pyrimidine-3-carboxamide]
